# Key:
# [1] = tested on: dog; settings: Chronic toxicity; beagle; Oral; Capsule; dose end: 12 month; group: systemic; systemic / in life observation / body weight / body weight + systemic / in life observation / clinical signs / emaciation + systemic / in …
# [2] = tested on: mouse; settings: Carcinogenicity; cd1; Oral; Feed; dose end: 78 week; group: systemic; systemic / in life observation / body weight / body weight + systemic / in life observation / body weight / body weight gain
# [3] = tested on: rat; settings: Neurotoxicity screening battery; other; Oral; Feed; dose end: 11 month; group: cannot be grouped; systemic / in life observation / body weight / body weight
# [4] = tested on: rat; settings: Prenatal developmental toxicity study, sprague dawley, Oral, Gavage/Intubation, dose end: 15 GD
# [5] = tested on: hamster; settings: Subchronic oral toxicity in rodents, golden syrian, Feed, dose end: 90 day, group: systemic
# [6] = tested on: rat; settings: Subchronic oral toxicity in rodents, sprague-dawley, Feed, dose end: 90 day, group: systemic, systemic / organ weight / liver / absolute + systemic / organ weight / liver / relative to body weight + systemic / pathology microscopic / …
# [7] = tested on: rat; settings: Multigenerational reproductive toxicity study, sprague dawley, Oral, Feed, dose end: 2 generation
# [8] = tested on: rat; settings: Combined chronic toxicity/carcinogenicity; sprague dawley; Oral; Feed; dose end: 2 year; group: systemic; systemic / clinical chemistry / cholesterol / cholesterol + systemic / in life observation / body weight / body weight + systemic / in life …
# [9] = tested on: dog; settings: Chronic toxicity, beagle, Oral, Feed, dose end: 52 week, group: cholinesterase
# [10] = tested on: dog; settings: Chronic toxicity; beagle; Oral; Feed; dose end: 24 month; group: cholinesterase; cholinesterase / cholinesterase / cholinesterase / plasma cholinesterase (che)
# [11] = tested on: rabbit; settings: Prenatal developmental toxicity study, Oral, Gavage/Intubation, dose end: 18 GD
# [12] = tested on: rat; settings: Prenatal developmental toxicity study, other, Oral, Gavage/Intubation, dose end: 15 GD
# [13] = tested on: mouse; settings: Carcinogenicity; cd1; Oral; Feed; dose end: 104 week; group: cholinesterase; cholinesterase / cholinesterase / cholinesterase / cholinesterase (che)
# [14] = group: developmental, systemic / in life observation / body weight / fetal weight
# [15] = group: maternal, systemic / in life observation / body weight / body weight gain + systemic / in life observation / clinical signs / ataxia + systemic / in …
# [16] = systemic / in life observation / body weight / body weight + systemic / in life observation / food consumption / food consumption
# [17] = systemic / in life observation / body weight / body weight + systemic / in life observation / food consumption / food consumption + systemic…
# [18] = group: offspring, systemic / in life observation / body weight / offspring (pup) weight
# [19] = group: parental, systemic / pathology gross / kidney / discolored + systemic / pathology microscopic / kidney / casts granular + systemic / pathology …
# [20] = cholinesterase / cholinesterase / cholinesterase / plasma cholinesterase (che)
# [21] = cholinesterase / cholinesterase / cholinesterase / plasma cholinesterase (che) + cholinesterase / cholinesterase / cholinesterase / brain …
# [22] = group: developmental, developmental / developmental malformation / bone / fused
# [23] = group: maternal, systemic / in life observation / body weight / body weight gain + systemic / urinalysis / appearance and color / appearance and color
# [24] = group: maternal, systemic / in life observation / body weight / body weight gain + systemic / urinalysis / appearance and color / appearance and color + …
# [25] = group: developmental, developmental / developmental malformation / bone / delayed ossification
# [26] = group: maternal, systemic / in life observation / clinical signs / hyperactivity
smiles,measurement,setting,value
CCN(CC)C(=O)c1cccc(C)c1 [DEET],LEL,[1],400 mg/kg/day
same,LOAEL,[1],400 mg/kg/day
same,NEL,[1],100 mg/kg/day
same,NOAEL,[1],100 mg/kg/day
same,LEL,[2],1000 mg/kg/day
same,LOAEL,[2],1000 mg/kg/day
same,NEL,[2],500 mg/kg/day
same,NOAEL,[2],500 mg/kg/day
same,LEL,[3],250 mg/kg/day
same,LOAEL,[3],> 250 mg/kg/day
same,NEL,[3],100 mg/kg/day
same,NOAEL,[3],≥ 250 mg/kg/day
same,LEL,[4]; [14],750 mg/kg/day
same,LOAEL,[4]; [14],750 mg/kg/day
same,NEL,[4]; [14],250 mg/kg/day
same,NOAEL,[4]; [14],250 mg/kg/day
same,LEL,[4]; [15],750 mg/kg/day
same,LOAEL,[4]; [15],750 mg/kg/day
same,NEL,[4]; [15],250 mg/kg/day
same,NOAEL,[4]; [15],250 mg/kg/day
same,LEL,[5]; [16],304 mg/kg/day
same,LOAEL,[5]; [16],304 mg/kg/day
same,NEL,[5]; [17],61 mg/kg/day
same,NOAEL,[5]; [17],61 mg/kg/day
same,LEL,[6],100 mg/kg/day
same,LOAEL,[6],100 mg/kg/day
same,NEL,[6],< 100 mg/kg/day
same,NOAEL,[6],< 100 mg/kg/day
same,LEL,[7]; [18],250 mg/kg/day
same,LOAEL,[7]; [18],> 250 mg/kg/day
same,NEL,[7]; [18],100 mg/kg/day
same,NOAEL,[7]; [18],≥ 250 mg/kg/day
same,LEL,[7]; [19],25 mg/kg/day
same,LOAEL,[7]; [19],25 mg/kg/day
same,NEL,[7]; [19],< 25 mg/kg/day
same,NOAEL,[7]; [19],< 25 mg/kg/day
same,LEL,[8],400 mg/kg/day
same,LOAEL,[8],400 mg/kg/day
same,NEL,[8],100 mg/kg/day
same,NOAEL,[8],100 mg/kg/day
CCOP(=S)(OCC)SCSP(=S)(OCC)OCC [Ethion],LEL,[9]; [20],0.049 mg/kg/day
same,LOAEL,[9]; [20],0.049 mg/kg/day
same,NEL,[9]; [21],0.026 mg/kg/day
same,NOAEL,[9]; [21],0.026 mg/kg/day
same,LEL,[10],0.403 mg/kg/day
same,LOAEL,[10],0.403 mg/kg/day
same,NEL,[10],0.123 mg/kg/day
same,NOAEL,[10],0.123 mg/kg/day
same,LEL,[11]; [22],9.6 mg/kg/day
same,LOAEL,[11]; [22],9.6 mg/kg/day
same,NEL,[11]; [22],2.4 mg/kg/day
same,NOAEL,[11]; [22],2.4 mg/kg/day
same,LEL,[11]; [23],2.4 mg/kg/day
same,LOAEL,[11]; [23],2.4 mg/kg/day
same,NEL,[11]; [24],0.6 mg/kg/day
same,NOAEL,[11]; [24],0.6 mg/kg/day
same,LEL,[12]; [25],2.5 mg/kg/day
same,LOAEL,[12]; [25],2.5 mg/kg/day
same,NEL,[12]; [25],0.6 mg/kg/day
same,NOAEL,[12]; [25],0.6 mg/kg/day
same,LEL,[12]; [26],2.5 mg/kg/day
same,LOAEL,[12]; [26],2.5 mg/kg/day
same,NEL,[12]; [26],0.6 mg/kg/day
same,NOAEL,[12]; [26],0.6 mg/kg/day
same,LEL,[13],1.2 mg/kg/day
same,LOAEL,[13],> 1.2 mg/kg/day
same,NEL,[13],0.22 mg/kg/day
same,NOAEL,[13],≥ 1.2 mg/kg/day
